Consider one cell line from the supplement of paper PMC10307832.

Common to all, as to assay: relative viability (nuclei count vs DMSO), 5 days (fraction); higher = more cells survive
Compound in experiment [1]: CC1=CC(=CC=C1)NC2=NC(=CS2)C3=CC=NC=C3 + C[C@]1(O)C[C@@H](c2nc(-c3ccc4ccc(-c5ccccc5)nc4c3)c3c(N)nccn32)C1 [Linsitinib] (partner 1 µM)
In outline: (§1)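 Lung cancer cell lines in 1536-well plates were dosed by pin tool the day after seeding, either with one drug alone or with a fixed anchor-drug dose plus five library-drug doses (not always all listed) in √10 steps. After 5 days, cells were fixed and their nuclei stained in one step (final 0.05% Triton X-100, 1% formaldehyde, 1 ug/ml Hoechst), then counted on 4× images. Relative viability is the nuclei count in treated wells divided by that in vehicle wells. Values are medians of duplicate plates.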

Compound in experiment [2]: CC1=CC(=CC=C1)NC2=NC(=CS2)C3=CC=NC=C3 + O=C(c1cc(Cc2n[nH]c(=O)c3ccccc23)ccc1F)N1CCN(C(=O)C2CC2)CC1 [Olaparib] (partner 8 µM)
The method, boiled down:
as §1

Compound in experiment [3]: Cc1ccc(NC(=O)c2ccc(CN3CCN(C)CC3)cc2)cc1Nc1nc(-c2cccnc2)cs1 [Masitinib] + N=C(N)NC(=N)NCCc1ccccc1 [Phenformin] (partner 250 µM)
In outline: as §1

Compound in experiment [4]: Cc1ccc(NC(=O)c2ccc(CN3CCN(C)CC3)cc2)cc1Nc1nc(-c2cccnc2)cs1 [Masitinib] + CC(=O)Nc1cccc(-n2c(=O)n(C3CC3)c(=O)c3c(Nc4ccc(I)cc4F)n(C)c(=O)c(C)c32)c1 [Trametinib] (partner 0.02 µM)
In outline: as §1

On to UMC-11, for which the relative viability in experiment [1] (first compound 0.08 µM) came out at 0.983; in experiment [1] (first compound 0.253 µM), 1; in experiment [1] (first compound 0.8 µM) it was 1.01; in experiment [1] (first compound 2.53 µM) it was 0.977; in experiment [1] (first compound 8 µM) it was 1.05; in experiment [2] (first compound 0.08 µM) it was 0.339. For the same cell line, the relative viability in experiment [2] (first compound 0.253 µM) came to 0.386; in experiment [2] (first compound 0.8 µM), 0.381; in experiment [2] (first compound 2.53 µM), 0.806; in experiment [2] (first compound 8 µM), 0.402; in experiment [3] (first compound 0.03162 µM), 0.331; in experiment [3] (first compound 0.1 µM) it was 0.363. In addition, the relative viability in experiment [3] (first compound 0.3162 µM) was found to be 0.377; in experiment [3] (first compound 1 µM) it was 0.338; in experiment [4] (first compound 0.01 µM), 0.431; in experiment [4] (first compound 0.03162 µM), 0.588; in experiment [4] (first compound 0.1 µM) it was 0.617; in experiment [4] (first compound 0.3162 µM), 0.627. Moreover, the relative viability in experiment [4] (first compound 1 µM) came to 0.804.
